Measured values taken from patent publication US20250051375A1, “ANTI-HIV COMPOUNDS” (Gilead Sciences, Inc., priority 2023, published 2025).
Converted amounts (≈) assume the structure as drawn. Where two headings read alike, the source gives them in different places.

How the values were obtained:
physchem = settings: 23 °C, pH 6.5, fassif, thermodynamic from solid
Method: Buffer Preparation: Fasted State Simulated Intestinal Fluid (FaSSIF): Simulated Intestinal Fluid (SIF) powder containing a complex of Taurocholate and Lecithin (4:1 molar ratio) was obtained from Biorelevant. 0.056 g of SIF powder was added to 25 mL of buffer, adjusted to pH 6.5, containing 0.011 g of NaOH (pellets), 0.099 g of NaH2PO4 (monohydrate), and 0.155 g of NaCl. The buffer was prepared with HPLC H2O. The SIE powder was stirred until completely dissolved and allowed to stand for 2 hours.
Test Compounds: Each test compound was placed in a vial containing approximately 7 mg of material. Aliquots were weighed out for each assay media at each time point to be analyzed. The buffer was added to each vial such that the final dose concentration of 5 mg/mL was achieved. Samples were then vortexed for 5-10 seconds.
The plate was sealed with a pierceable heat seal and analyzed by HPLC-UV.

[1] = molecular target: bovine intestinal alkaline phosphatase (Bos taurus (Bovine), UniProt P19111); test: BiALP: conversion by bovine intestinal alkaline phosphatase; type: in vitro ADME; settings: 2 μM substrate, 100 ng/mL iALP, Tris pH 7.8, 37° C., 60 minutes; for [Intermediate A] or [Amprenavir]: parent formed
Chain of bovine intestinal alkaline phosphatase (P19111 20-506): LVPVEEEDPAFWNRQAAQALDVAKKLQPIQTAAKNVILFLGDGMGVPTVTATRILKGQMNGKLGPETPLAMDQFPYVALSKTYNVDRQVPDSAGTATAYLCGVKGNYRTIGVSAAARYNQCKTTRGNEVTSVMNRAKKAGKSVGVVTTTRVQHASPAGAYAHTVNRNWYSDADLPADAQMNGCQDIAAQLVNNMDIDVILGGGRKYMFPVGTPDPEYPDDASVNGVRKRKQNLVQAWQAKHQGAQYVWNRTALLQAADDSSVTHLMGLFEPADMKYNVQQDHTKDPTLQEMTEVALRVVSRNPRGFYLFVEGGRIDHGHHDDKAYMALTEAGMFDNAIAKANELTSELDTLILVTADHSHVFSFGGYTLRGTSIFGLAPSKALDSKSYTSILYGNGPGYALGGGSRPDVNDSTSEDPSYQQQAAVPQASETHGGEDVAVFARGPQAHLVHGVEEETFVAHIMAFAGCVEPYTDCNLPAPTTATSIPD
Method: Fosamprenavir and its parent compound (amprenavir) were purchased from Millipore Sigma (St. Louis, MO). Test compounds, Intermediate A, fosamprenavir, and amprenavir were each separately dissolved in dimethyl sulfoxide (DMSO) at a concentration of 10 mM to form stock solutions.
All other chemicals were purchased from Millipore Sigma (St. Louis, MO) and Thermo Fisher Scientific (Waltham, MA). […] Internal Standard/Quench (IS/Q) was 100 nM labetalol in 99:1 (v/v) acetonitrile/formic acid.
Incubations were performed with Tris buffer alone (0.1 M Tris-HCl pH 7.8 containing 1 mM MgCl2 and 1 mM ZnCl2) or the same Tris buffer further containing 100 ng/mL iALP (0.01 units/mL). Triplicate 100 μL aliquots of Tris buffer±iALP were warmed to 37° C. and the reactions were initiated by the addition of the test compound or fosamprenavir to obtain final substrate concentrations of 2 μM. Incubations were then continued at 37° C. At 60 minutes, reactions were terminated by the addition of 200 μl of IS/Q and mixed by pipette. […] Aliquots (150 μL) of the supernatants were transferred to fresh plates containing 150 μL of water. Aliquots (15 μL) of the diluted supernatants were analyzed by mass spectrometry as described below.
Quantification of the test compounds and fosamprenavir was performed by analyte/internal standard peak area ratios (PARs) with comparison to 2 μM Intermediate A and amprenavir, respectively. The LC instrumentation consisted of a Thermo Scientific Vanquish pump and a Thermo Hypersil Gold column (1.9 μm particle size, 2.1×50 mm). […] The MS instrument was a Thermo Q Exactive™ Plus operating in positive ionization mode with mass tolerance of 5 ppm and calibrated on a twice weekly basis.

HIV-1 IIIB strain = test: MT-4 HIV Wild Type Virus Infection Assay (IIIB Virus); type: cell-based; settings: MT-4 cells acutely infected with HIV-1 IIIB, 5 day incubation, Cell-titer glo
Method: Test compounds and controls were serially diluted and spotted in replicate into 384 well black assay plates via acoustic transfer (Echo). MT-4 cells were grown in batch, centrifuged and resuspended into fresh CCM media (RPMI w/10% FBS, 1% PS) at 2×10^6 cells/ml. MT-4 cells were acutely infected with HIV-1 IIIB strain. The size of each infection mix was scaled by the number of sample plates to be tested. Each infection mix was transferred into 5 mL closed tubes and nutated rapidly on a shaker at 37° C. incubator for 1 hour. The infection mixes were then diluted 25× in fresh cell culture media and then added to assay plates at 40 μL per well using a ViaFlo 384 pipettor. After 5 day incubation at 37° C. in a CO2 incubator, assay plates were processed with Cell-titer glo reagent using a ViaFlo 384 with an addition/mixing program. Plates were read immediately on Envision reader. Assay signals were plotted and dose response curves generated to determine individual compound EC50s.

PBS Stability Assay = type: physicochemical; settings: phosphate buffered saline pH 7.4; for half-life at 2 μM: buffer, pH 7.4, 2 μM, read-out: PBS T½; for PBS T½: 2 μM
Method: Reagents. Stock solutions of test compounds in dimethyl sulfoxide (DMSO) having a final concentration of 10 mM were prepared and used in all experiments. Sekisui XenoTech (Kansas City, KS) provided pooled intestinal S9 fractions. All other chemicals were purchased from Sigma-Aldrich (St. Louis, MO) or VWR (West Chester, PA). Internal Standard/Quench (IS/Q) used to stop reactions was 100 nM labetalol in (by volume) formic acid (1%) and acetonitrile (99%).
PBS Stability Assay: For each test compound, an aliquot of the test compound was added to phosphate buffered saline (137 mM NaCl, 2.7 mM KCl, 10 mM phosphate buffer), pH 7.4. The incubation was initiated by the addition of the test compound to PBS to a final concentration of 2 μM. At 0, 10, 20, 30, 60 and 120 min, 25 μL aliquots of the incubation mixture were transferred to plates containing 225 μl of IS/Q solution. After quenching, the plates were centrifuged at 3000×g for 30 minutes. 150 μL aliquots of each supernatant were transferred to new plates and 150 μL water was added. Aliquots (10 μL) of the prepared samples were analyzed on a Thermo Q-Exactive mass spectrometer as described below.
Liquid Chromatography-Mass Spectrometry: Quantification of test compounds and control substrate was performed by analyte/internal standard peak area ratio (PAR) values measured on a Thermo Q-Exactive mass spectrometer coupled to a Dionex UltiMate 3000 HPLC with a Leap Technologies HTC PAL autosampler. The column used for analysis was a Thermo Scientific Hypersil GOLD (1.9 μm particle size, 50×2.1 mm). Mobile phase A consisted of 0.1% (v/v) formic acid in water. Mobile phase B consisted of 0.1% (v/v) formic acid in acetonitrile. Elution of analytes was achieved by a series of linear gradients varying the proportions of A and B. The mass spectrometer was calibrated on a weekly basis and mass tolerance of 5 ppm was used.
Data Analysis. Metabolic stabilities were determined by measuring the rates of disappearance of test compound and positive control substrate. Data (% of substrate remaining) were plotted on a semi-log scale and fitted using an exponential decline model:
where • Ct% of substrate remaining at time=t • C0% of substrate remaining at time=0 • t time • T½ half-life • The Half-life (T½) is determined by the following equation:
[formula] • Assuming a first-order reaction, the slope (k) is extrapolated from the aforementioned plotted data.

[2] = Human immunodeficiency virus 1, IIIB, MT4, 120 h

Row | SMILES | solubility (physchem; FaSSIF (pH 6.5) solubility, FaSSIF pH 6.5, dose 5 mg/mL, 2-hour incubation, ambient temperature) | [Compound] [1] | biALP Intermediate A or [Amprenavir] (% of total) [1] | [Intermediate A] or [Amprenavir] [1] | EC50 (HIV-1 IIIB strain; Human immunodeficiency virus 1, IIIB, MT4, 120 h, read-out: EC50) | half-life at 2 μM (PBS Stability Assay) | solubility at 2 h (physchem) | EC50 (HIV-1 IIIB strain; [2]) | PBS T½ (PBS Stability Assay) | EC50 (HIV-1 IIIB strain)
1 | COC(=O)N[C@H](C(=O)N[C@@H](Cc1ccc(C#Cc2cnc(N3CC4CCC(C3)N4C3COC3)nc2)cc1)[C@H](CN(Cc1c(F)cc(-c2ccn(C(F)F)n2)cc1F)NC(=O)[C@@H](NC(=O)OC)C(C)(C)C(F)(F)F)OC(=O)OCOC(=O)CC(C)(C)c1c(CC(=O)O)cc(C)cc1OP(=O)(O)O)C(C)(C)C(F)(F)F [Example 20] | 0.22 mg/mL (≈ 141 µM) | 1351.2 nM | 48.6 % of total | 1276.2 nM | 0.0007 µM | 6.5 h | – | – | – | –
2 | COC(=O)N[C@H](C(=O)N[C@@H](Cc1ccc(C#Cc2cnc(N3CC4CCC(C3)N4C3COC3)nc2)cc1)[C@H](CN(Cc1c(F)cc(-c2ccn(C(F)F)n2)cc1F)NC(=O)[C@@H](NC(=O)OC)C(C)(C)C(F)(F)F)OC(=O)OCOC(=O)CC(C)(C)c1c(CC(=O)NCCS(=O)(=O)O)cc(C)cc1OP(=O)(O)O)C(C)(C)C(F)(F)F [Example 21] | – | 1281.9 nM | 44.7 % of total | 1034.6 nM | – | – | 4.34 mg/mL (≈ 2610 µM) | 0.0036 µM | 13.2 h | –
3 | COC(=O)N[C@H](C(=O)N[C@@H](Cc1ccc(C#Cc2cnc(N3CC4CCC(C3)N4C3COC3)nc2)cc1)[C@H](CN(Cc1c(F)cc(-c2ccn(C(F)F)n2)cc1F)NC(=O)[C@@H](NC(=O)OC)C(C)(C)C(F)(F)F)OC(=O)OCOC(=O)CC(C)(C)c1c(CC(=O)NCC(=O)NS(C)(=O)=O)cc(C)cc1OP(=O)(O)O)C(C)(C)C(F)(F)F [Example 22] | – | 1221.6 nM | 54.6 % of total | 1468.7 nM | – | 6.22 h | 4.71 mg/mL (≈ 2790 µM) | 0.0099 µM | – | –
4 | COC(=O)N[C@H](C(=O)N[C@@H](Cc1ccc(C#Cc2cnc(N3CC4CCC(C3)N4C3COC3)nc2)cc1)[C@H](CN(Cc1c(F)cc(-c2ccn(C(F)F)n2)cc1F)NC(=O)[C@@H](NC(=O)OC)C(C)(C)C(F)(F)F)OC(=O)CC(C)(C)c1c(CC(=O)NCCCS(=O)(=O)O)cc(C)cc1OP(=O)(O)O)C(C)(C)C(F)(F)F [Example 25] | – | 2023.7 nM | – | – | – | 1.37 h | 2.41 mg/mL (≈ 1500 µM) | 0.0627 µM | – | –
5 | COC(=O)N[C@H](C(=O)N[C@@H](Cc1ccc(C#Cc2cnc(N3CC4CCC(C3)N4C3COC3)nc2)cc1)[C@H](CN(Cc1c(F)cc(-c2ccn(C(F)F)n2)cc1F)NC(=O)[C@@H](NC(=O)OC)C(C)(C)C(F)(F)F)OC(=O)CC(C)(C)c1c(CC(=O)NCCC(=O)O)cc(C)cc1OP(=O)(O)O)C(C)(C)C(F)(F)F [Example 26] | – | 1764 nM | – | – | – | 2.44 h | 1.44 mg/mL (≈ 923 µM) | 0.0969 µM | – | –
6 | COC(=O)N[C@H](C(=O)N[C@@H](Cc1ccc(C#Cc2cnc(N3CC4CCC(C3)N4C3COC3)nc2)cc1)[C@H](CN(Cc1c(F)cc(-c2ccn(C(F)F)n2)cc1F)NC(=O)[C@@H](NC(=O)OC)C(C)(C)C(F)(F)F)OC(=O)CC(C)(C)c1c(CC(=O)NC(CP(=O)(O)O)C(=O)O)cc(C)cc1OP(=O)(O)O)C(C)(C)C(F)(F)F (stereo partly drawn) [Example 34] | – | 2238.2 nM | – | – | – | 5.08 h | 4.81 mg/mL (≈ 2940 µM) | 0.179 µM | – | –
7 | COC(=O)N[C@H](C(=O)N[C@@H](Cc1ccc(C#Cc2cnc(N3CC4CCC(C3)N4C3COC3)nc2)cc1)[C@H](CN(Cc1c(F)cc(-c2ccn(C(F)F)n2)cc1F)NC(=O)[C@@H](NC(=O)OC)C(C)(C)C(F)(F)F)OC(=O)CC(C)(C)c1c(CC(=O)N(CCCC(=O)O)CCC(=O)O)cc(C)cc1OP(=O)(O)O)C(C)(C)C(F)(F)F [Example 36] | – | 1383.3 nM | – | – | – | 10.9 h | 4.25 mg/mL (≈ 2590 µM) | 0.0974 µM | – | –
8 | COC(=O)N[C@H](C(=O)N[C@@H](Cc1ccc(C#Cc2cnc(N3CC4CCC(C3)N4C3COC3)nc2)cc1)[C@H](CN(Cc1c(F)cc(-c2ccn(C(F)F)n2)cc1F)NC(=O)[C@@H](NC(=O)OC)C(C)(C)C(F)(F)F)OC(=O)CC(C)(C)c1c(CC(=O)NC(CCCC(=O)O)CC(=O)O)cc(C)cc1OP(=O)(O)O)C(C)(C)C(F)(F)F (stereo partly drawn) [Example 37] | – | 1518.9 nM | – | – | – | 7.32 h | 4.46 mg/mL (≈ 2720 µM) | 0.0418 µM | – | –
9 | COC(=O)N[C@H](C(=O)N[C@@H](Cc1ccc(C#Cc2cnc(N3CC4CCC(C3)N4C3COC3)nc2)cc1)[C@H](CN(Cc1c(F)cc(-c2ccn(C(F)F)n2)cc1F)NC(=O)[C@@H](NC(=O)OC)C(C)(C)C(F)(F)F)OC(=O)CC(C)(C)c1c(CC(=O)NC(CCCC(=O)O)C(=O)O)cc(C)cc1OP(=O)(O)O)C(C)(C)C(F)(F)F (stereo partly drawn) [Example 42] | – | 1335 nM | – | – | – | – | 4.02 mg/mL (≈ 2470 µM) | – | 6.025 h | 0.0491 µM
